According to patent US20260374818A1, “CATIONIC PEPTIDES WITH BROAD SPECTRUM ACTIVITY” (priority 2023, published 2026):
Values after ≈ are worked out from the molar mass of the structure shown. Where a SMILES comes first, the peptide text is derived from it. [ ]: non-standard residue; d: D form.

How the values were obtained:
[1] = test system: red blood cells; experiment: Hemolysis; format: cell-based, human; details: 4 hours
Method: Hemolysis: Peptide induced hemolysis was evaluated according to methods described previously [Hilchie, A. L., et al. (2016). Mastoparan is a membranolytic anti-cancer peptide that works synergistically with gemcitabine in a mouse model of mammary carcinoma. Biochimica Et Biophysica Acta, 1858(12), 3195-3204]. Briefly, red blood cells were obtained, with human ethics approval, from the blood of healthy volunteers collected in a sodium heparin tube and then rinsed three times in PBS, centrifuging between washes, to obtain the hematocrit (100% RBC). A 2.5% RBCs suspension was exposed to peptide at varying concentrations and incubated at 37 C in a 5% CO2 humidified atmosphere for 4 hours. Supernatants were collected following centrifugation (1100 rpm) and transferred to a flat bottom microtitre plate. The absorbance (490 nm) of each supernatant was measured on a BioTek Epoch Microplate Spectrophotometer. Percent hemolysis was calculated by comparing the absorbance arising from peptide treated cells to RBCs treated with […] (0% hemolysis) or lysed with 1% Triton X-100 (100% hemolysis).

[2] = test system: P. aeruginosa PAO1 biofilms; experiment: Biofilm inhibition by SPOT-synthesized AB103-D variants (crystal violet), P. aeruginosa; format: cell-based, Pseudomonas aeruginosa; details: P. aeruginosa PAO1, SPOT peptides
[3] = test system: P. aeruginosa PAO1 biofilms; details: for Biofilm growth inhibition: P. aeruginosa PAO1 (FIG. 20D); for minimum inhibitory concentration of peptide that inhibited at least 90% of biofilm growth (MBIC90): P. aeruginosa PAO1 biofilms, >95% pure peptides, crystal violet, BM2 minimal media; for More active than AB103-D against PAO1 biofilms: PAO1, >95% pure peptides
[4] = test system: MRSA USA300 biofilms; experiment: Biofilm inhibition by >95% pure peptides (crystal violet), MRSA; format: cell-based, methicillin resistant Staphylococcus aureus; details: MRSA USA300 biofilms, >95% pure peptides, 10% TSB + 0.1% glucose
[5] = test system: P. aeruginosa PAO1 planktonic cells; experiment: Planktonic growth inhibition by pure AB103-D derivatives, P. aeruginosa; format: cell-based, Pseudomonas aeruginosa
Method: (§1) The effect of peptide on bacterial and biofilm growth was assessed using the biofilm inhibition assay [Haney, E. F., Trimble, M. J., & Hancock, R. E. W. (2021) FIGS. 20A-20D. Microtiter plate assays to assess antibiofilm activity against bacteria. Nature Protocols, 16(5), 2615-2632]. The effect of peptide on planktonic growth and biofilm growth of MRSA USA300 (FIG. 20A, FIG. 20C) and P. aeruginosa PAO1 (FIGS. 20B, 20D) was assessed and compared to the activity seen for AB103-D (gray stars) and DJK5 (gray open circles). Data shown are the average of three biological replicates. Error bars have been omitted for clarity. […]. The results indicated enhanced antibiofilm and antibacterial activity of AB103-D derivatives compared to DJK5.

[6] = test system: peripheral blood mononuclear cells (PBMCs); experiment: Cytotoxicity (LDH release), PBMCs
[7] = Peptide aggregation in RPMI + 10% FBS with PBMCs (microscopy); format: physicochemical; details: overnight
Method: Peptide Aggregation: Peptide aggregation was assessed qualitatively by examining samples of peptides mixed with PBMCs following overnight incubation at 37 °C and 5% CO2. All samples were prepared in RPMI media containing 10% FBS the same manner as the cytotoxicity assays described above. Visualization of aggregates was done using a Nikon Eclipse TS100 Inverted Microscope at 10× magnification.
In aggregation studies, peptides were added to PBMCs in RPMI media containing 10% FBS and incubated overnight at 37 °C in 5% CO2.
The peptides were also evaluated for their tendency to aggregate when added to RPMI tissue culture media containing 10% fetal bovine serum in the presence of PBMCs. Peptides were added to PBMCs in RPMI media containing 10% FBS and incubated overnight at 37 °C in 5% CO2. […] Compared to a highly aggregation prone peptide, 1018 [Haney, E. F., et al. (2017). Aggregation and its influence on the immunomodulatory activity of synthetic innate defense regulator peptides.
As with the DJK-5 derivatives above, the AB103-D derivatives were evaluated for their tendency to aggregate when added to RPMI tissue culture media containing 10% fetal bovine serum in the presence of PBMCs. Peptides were added to PBMCs in RPMI media containing 10% FBS and incubated overnight at 37 °C in 5% CO2.

[8] = test system: MRSA USA 300; experiment: MIC (broth microdilution) of peptides, MRSA; format: cell-based, methicillin resistant Staphylococcus aureus; details: MRSA USA300; mode of three biological replicates
Method: (§2) Minimal inhibitory concentration (MIC) against planktonic bacteria: The MIC of the synthetic peptides was determined in Mueller-Hinton broth (MHB) using the broth microdilution method described previously [Wiegand, I., Hilpert, K., & Hancock, R. E. (2008). Agar and broth dilution methods to determine the minimal inhibitory concentration (MIC) of antimicrobial substances. Nature Protocols, 3(2), 163-175]. Briefly, 10 μl of a 10× concentrated peptide solution was placed in the bottom of a well in a 96-well polypropylene round bottom plate (Corning Inc.). A bacterial suspension of ~5×10^5 CFU/ml was prepared from an overnight culture and 90 μl of this was added to each well. […] Bacteria tested included P. aeruginosa PAO1, MRSA USA300 LAC, Staphylococcus haemolyticus, Staphylococcus epidermidis, Klebsiella pneumoniae and Streptococcus salivarius.
(§3) Finally, the AB103-D derivatives that were the least aggregation prone and which produced the lowest toxic effects in vivo were evaluated for their direct antibacterial activity towards several pathogens of clinical relevance using a standard minimum inhibitory concentration (MIC) assay [Wiegand, I., Hilpert, K., & Hancock, R. E. (2008). Agar and broth dilution methods to determine the minimal inhibitory concentration (MIC) of antimicrobial substances. Nature Protocols, 3(2), 163-175]. Specifically, peptides AB110-D, AB111-D, AB114-D and AB115-D were tested against P. aeruginosa PAO1, MRSA USA 300, Staphylococcus haemolyticus, Staphylococcus epidermidis, Klebsiella pneumoniae and Streptococcus salivarius and compared against the antibacterial activity of DJK-5 and AB103-D (Table 7). Overall, the antibacterial potency of all of the AB103-D derivatives was stronger than that seen for DJK-5, particularly in the case of the Gram-negative pathogens P. aeruginosa and K. pneumoniae. […]

[9] = test system: Klebsiella pneumoniae; experiment: MIC (broth microdilution) of peptides, K. pneumoniae; format: cell-based; details: mode of three biological replicates
Method: as §2, §3

[10] = test system: MRSA USA300 planktonic cells; experiment: Planktonic growth inhibition by pure AB103-D derivatives, MRSA; format: cell-based, methicillin resistant Staphylococcus aureus
Method: as §1

[11] = test system: P. aeruginosa PAO1; experiment: MIC (broth microdilution) of peptides, P. aeruginosa; format: cell-based, Pseudomonas aeruginosa; details: mode of three biological replicates
Method: as §2, §3

[12] = test system: Staphylococcus epidermidis; experiment: MIC (broth microdilution) of peptides, S. epidermidis; format: cell-based; details: mode of three biological replicates
Method: as §2, §3

[13] = test system: Staphylococcus haemolyticus; experiment: MIC (broth microdilution) of peptides, S. haemolyticus; format: cell-based; details: mode of three biological replicates
Method: as §2, §3

[14] = Subdermal murine toxicity model; details: for Clinical score: 1 hour after subcutaneous administration, comparator DJK-5; for Average cyst size compared to DJK-5: 16 hours after administration, 4 mg/kg
Method: FIGS. 14A-14B show murine subdermal toxicity assessment of AB103-D derived peptides. Clinical scores were recorded for each peptide treated mouse one hour after peptide administration (FIG. 14A). […] The presence of a cyst or lesion was recorded 16 hours after peptide administration and the size of the cyst was measured using calipers (FIG. 14B). Data shown are the mean of two independent replicates at a peptide dose of 4 mg/kg.
Subdermal murine toxicity model: A subdermal toxicity mouse model was used to evaluate whether peptides induced localized toxicity of treated cutaneous tissue. Mice were anesthetized with 2.5-3% isoflurane and their fur was removed by shaving followed by application of a chemical depilatory. […] Mice were visually assessed and received clinical scores for a battery of signs or symptoms (activity/behaviour change, appearance/grooming, hydration, pain, cyst formation), for which a score of zero was given to animals that appeared normal. Animals were weighed and clinical scores were totalled. Following an overnight (16 h) incubation, mice were scored and weighed then euthanized with CO2 followed by cervical dislocation. Mice were imaged and cysts (swollen, inflamed tissue) were measured using a caliper. Animal experiments were performed in accordance with the Canadian Council on Animal Care (CCAC) guidelines and were approved by the University of British Columbia Animal Care Committee. Female CD-1 mice were purchased from Charles River Laboratories, Inc. (Wilmington, MA). All mice were 8 weeks of age and weighed 25±5 g at the time of the experiment. Animals were group housed in cohorts of three to four littermates. Standard animal husbandry practices were employed.

[15] = test system: Streptococcus salivarius; experiment: MIC (broth microdilution) of peptides, S. salivarius; format: cell-based; details: mode of three biological replicates
Method: as §2, §3

[16] = test system: MRSA biofilms (USA300 LAC); details: MRSA biofilms, SPOT peptides
[17] = 200 μg/ml or highest concentration

Row | SMILES | Hemolysis [1] | Activity against PAO1 biofilms compared to AB103-D [2] | Biofilm growth inhibition [3] | minimum inhibitory concentration of peptide that inhibited at least 90% of biofilm growth (MBIC90) [3] | More active than AB103-D against PAO1 biofilms [3] | minimum inhibitory concentration of peptide that inhibited at least 90% of biofilm growth (MBIC90) [4] | Planktonic growth inhibition [5] | Cytotoxicity (LDH) [6] | Peptide aggregation ([7]; 50 μg/ml) | Peptide aggregation [7, 17] | MIC [8] | MIC [9] | Planktonic growth inhibition [10] | MIC [11] | MIC [12] | MIC [13] | Clinical score [14] | Average cyst size compared to DJK-5 [14] | MIC [15] | Better activity vs. MRSA cf. AB103-D [16]
1 | CC[C@@H](C)[C@@H](NC(=O)[C@@H](C)NC(=O)[C@@H](CCCNC(=N)N)NC(=O)[C@@H](Cc1c[nH]c2ccccc12)NC(=O)[C@@H](CCC(N)=O)NC(=O)[C@H](NC(=O)[C@@H](CCCNC(=N)N)NC(=O)[C@H](NC(=O)[C@H](NC(=O)[C@@H](Cc1c[nH]c2ccccc12)NC(=O)[C@H](NC(=O)[C@H](N)CCCNC(=N)N)C(C)C)C(C)C)[C@H](C)CC)C(C)C)C(N)=O [AB109-D, rvwvirvqwrai] (H-[dR][dV][dW][dV][dI][dR][dV][dQ][dW][dR][dA][dI]-NH2) | substantial hemolysis at concentrations higher than 25 μg/ml | activity superior to that of AB103-D | among the most active | 2 µM | up to 4 fold | 1 µM | among the most active | most toxic towards PBMCs at the highest peptide concentration evaluated of 200 μg/ml | peptide aggregation was again observed | strongly aggregated |  |  |  |  |  |  |  |  |  | 
2 | CC[C@@H](C)[C@@H](NC(=O)[C@@H](C)NC(=O)[C@@H](CCCNC(=N)N)NC(=O)[C@@H](Cc1c[nH]c2ccccc12)NC(=O)[C@@H](CCC(N)=O)NC(=O)[C@H](NC(=O)[C@@H](CCCNC(=N)N)NC(=O)[C@@H](Cc1c[nH]c2ccccc12)NC(=O)[C@H](NC(=O)[C@@H](CCCNC(=N)N)NC(=O)[C@H](NC(=O)[C@H](N)CCCNC(=N)N)C(C)C)C(C)C)C(C)C)C(N)=O [AB111-D, rvrvwrvqwrai] (H-[dR][dV][dR][dV][dW][dR][dV][dQ][dW][dR][dA][dI]-NH2) |  | activity superior to that of AB103-D |  | 4 µM |  | 0.5 µM |  |  |  |  | 0.8 µg/mL (≈ 0.493 µM) | 0.8 µg/mL (≈ 0.493 µM) | among the most active against planktonic cells | 2 µg/mL (≈ 1.23 µM) | 0.8 µg/mL (≈ 0.493 µM) | 0.8 µg/mL (≈ 0.493 µM) | < 2 | smaller than those induced by DJK-5 | 0.8 µg/mL (≈ 0.493 µM) | 
3 | CC[C@@H](C)[C@@H](NC(=O)[C@H](NC(=O)[C@@H](CCCNC(=N)N)NC(=O)[C@@H](Cc1c[nH]c2ccccc12)NC(=O)[C@@H](CCC(N)=O)NC(=O)[C@H](NC(=O)[C@@H](CCCNC(=N)N)NC(=O)[C@H](NC(=O)[C@H](NC(=O)[C@@H](CCCNC(=N)N)NC(=O)[C@H](NC(=O)[C@H](N)CCCNC(=N)N)C(C)C)C(C)C)[C@H](C)CC)C(C)C)[C@H](C)CC)C(N)=O [AB112-D, rvrvirvqwrii] (H-[dR][dV][dR][dV][dI][dR][dV][dQ][dW][dR][dI][dI]-NH2) |  | activity superior to that of AB103-D | among the most active | 2 µM | up to 4 fold | 1 µM | among the most active |  | peptide aggregation was again observed | strongly aggregated |  |  |  |  |  |  |  |  |  | 
4 | CC[C@@H](C)[C@@H](NC(=O)[C@@H](C)NC(=O)[C@@H](CCCNC(=N)N)NC(=O)[C@@H](Cc1c[nH]c2ccccc12)NC(=O)[C@@H](CCCCN)NC(=O)[C@H](NC(=O)[C@@H](CCCNC(=N)N)NC(=O)[C@H](NC(=O)[C@H](NC(=O)[C@@H](CCCNC(=N)N)NC(=O)[C@H](NC(=O)[C@H](N)CCCNC(=N)N)C(C)C)C(C)C)[C@H](C)CC)C(C)C)C(N)=O [AB114-D, rvrvirvkwrai] (H-[dR][dV][dR][dV][dI][dR][dV][dK][dW][dR][dA][dI]-NH2) |  |  |  | 8 µM |  | 0.5 µM |  |  |  |  | 0.8 µg/mL (≈ 0.516 µM) | 0.8 µg/mL (≈ 0.516 µM) | among the most active against planktonic cells | 2 µg/mL (≈ 1.29 µM) | 0.4 µg/mL (≈ 0.258 µM) | 0.8 µg/mL (≈ 0.516 µM) | < 2 | smaller than those induced by DJK-5 | 0.8 µg/mL (≈ 0.516 µM) | ~2 fold
